Earlier results as cited in patent publication US11154521B2 (Acer Therapeutics Inc., priority 2016, dated 2021).

Assays:
[1] = healthy adults
[2] = test system: cultured human muscle fibers; conditions: Nogalska et al. 2014
[3] = test system: activated glial cells
[4] = test system: torsinA; conditions: Cho et al. PLoS One 2014

Compound	mean terminal half-life [1]	Aβ42 and its oligomers [2]	lysosomal activity [2]	muscle-fiber vacuolization [2]	γ-secretase activity [2]	proinflammatory molecules and reactive oxygen species (ROS) [3]	ER stress and inhibited cAMP response to forskolin induced by torsinA mutation [4]
sodium phenylbutyrate	48 min	decrease	improve	prevent	decrease	suppress	
O=C(O)CCCc1ccccc1 [4-phenylbutyrate]							corrected
